Adipogenesis and human adipocyte generation data for two compounds are collected here from US20160354303A1, “Method, Compositions, And Kit For Modulating The Appearance Of Volume On Keratin Surfaces” (ELC MANAGEMENT LLC, priority 2014, published 2016).

The test system of the assay is Human subcutaneous preadipocytes. As to the kind of experiment: Adipocyte differentiation assay: inhibition of adipogenesis, glycerol liberated from triglyceride (Zen-Bio). The assay is classed as cell-based. As to conditions: for adipogenesis: inhibition in presence of 1 uM Rosiglitazone, OD at 540 nm, glycerol liberated from triglyceride, FIGS. 2 and 3. As to the method:
Conjugated linoleic acid and resveratrol were tested for their ability to promote the appearance of decreased volume. Cell culture, treatment, and differentiation assay was performed by Zen-Bio, RTF, NC. Human subcutaneous preadipocytes, lot number: were cultured in 96-well plates. The donor information is as follows: • Lot #: L061103 • […] • […] • B.M.I.: 25.2 Stimulation was treated in the presence of 0.1 uM Rosiglitazone Maleate. Inhibition was treated in the presence of 1.0 uM Rosiglitazone Maleate. Day 1: Plated cells and allowed cells to adhere. Day 2: Changed medium to Initiation medium containing the compounds or controls. Day 5: Changed medium to Adipocyte medium with the compounds. Day 8: Changed medium to Adipocyte medium with the compounds. Day 11: Changed medium to Adipocyte medium with the compounds. Day 13: Cells were washed with PBS and lysed with the lysis buffer. Reagent B was added to each well and the cells were incubated at 37° C. for 2 hours. Aliquots of the lysates were diluted with PBS, then Reagent A was added to each well. The optical density was read at 540 nm after 15 minutes. The reagent measures the amount of glycerol liberated from triglyceride. Data were analyzed using a one-way ANOVA and significant means were tested by Bonferroni multiple comparison test using Instat software. Cell culture, treatment, and differentiation assay was performed by Zen-Bio, RTF, NC. Human subcutaneous preadipocytes, lot number: were cultured in 96-well plates. The donor information is as follows: • Lot#: SL0029 • Gender: Female (all lots) […] ([…]) Human subcutaneous preadipocytes were cultured in 96-well plates. Day 1: Plated cells and allowed cells to adhere. Day 2: Changed medium to Differentiation medium containing the compounds or controls. (0.1 uM Rosi for stimulation or 1 uM Rosi for inhibition) Day 9: Changed medium to Adipocyte medium plus compounds. Day 12: Changed medium to Adipocyte medium plus compounds. Day 16: Cells were washed with PBS and lysed with the lysis buffer. […] The optical density was read at 540 nm after 15 minutes. […]

Consider conjugated linoleic acid, for which the adipogenesis entry is on record as “effective in reducing adipogenesis”.
As to `Oc1ccc(C=Cc2cc(O)cc(O)c2)cc1` [resveratrol], the adipogenesis entry was “effective in reducing adipogenesis”. Also, under “after treatment with resveratrol, FIG. 2 legend”, the human adipocyte generation result is reported as “decrease in human adipocyte generation”.
